Laboratory results as given in patent US12662479B2 (Foghorn Therapeutics Inc., priority 2020, dated 2026).

Experiments:
[1] = biological target: T1, HiBit-BRM fusion protein (Homo sapiens, UniProt P51531); experiment: HiBiT-BRM cell-based degradation assay (Nano-Glo HiBiT Lytic Detection, 24 h); conditions: HeLa cells expressing HiBiT-BRM; for DC50: read-out: BRM HiBit Degradation IC50; for BRM HiBit Degradation Maximum measured: top dose 30 μM
T1 construct: expressed in transfected cells
Outline: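 Luminescence from reconstituted NanoBiT luciferase in lysed HeLa HiBiT-BRM cells served as the measure of remaining BRM after 24 h treatment. Compounds were tested from 30 μM final downward in 3-fold steps. DMSO and 2 μM of a standard BRM/BRG1 degrader defined the scale limits.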

[2] = biological target: T2, HiBit-BRG1 fusion protein (Homo sapiens, UniProt P51532); experiment: HiBiT-BRG1 cell-based degradation assay (Nano-Glo HiBiT Lytic Detection, 24 h); conditions: HeLa cells expressing HiBit-BRG1 and LgBit; for DC50: read-out: BRG1 HiBit Degradation IC50; for Dmax: HeLa, top dose 30 μM, read-out: BRG1 HiBit Degradation Maximum measured
T2 construct: expressed in transfected cells
Outline: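 Stable HeLa line expressing HiBiT-BRG1 and LgBiT, seeded at 5000 cells/well; luminescence read after lytic Nano-Glo HiBiT reagent and 10 min shaking at RT. % degradation normalised between DMSO (high control) and 2 μM reference BRM/BRG1 degrader (low control).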

T2 sequence (P51532 whole entry, the tested form may be a part): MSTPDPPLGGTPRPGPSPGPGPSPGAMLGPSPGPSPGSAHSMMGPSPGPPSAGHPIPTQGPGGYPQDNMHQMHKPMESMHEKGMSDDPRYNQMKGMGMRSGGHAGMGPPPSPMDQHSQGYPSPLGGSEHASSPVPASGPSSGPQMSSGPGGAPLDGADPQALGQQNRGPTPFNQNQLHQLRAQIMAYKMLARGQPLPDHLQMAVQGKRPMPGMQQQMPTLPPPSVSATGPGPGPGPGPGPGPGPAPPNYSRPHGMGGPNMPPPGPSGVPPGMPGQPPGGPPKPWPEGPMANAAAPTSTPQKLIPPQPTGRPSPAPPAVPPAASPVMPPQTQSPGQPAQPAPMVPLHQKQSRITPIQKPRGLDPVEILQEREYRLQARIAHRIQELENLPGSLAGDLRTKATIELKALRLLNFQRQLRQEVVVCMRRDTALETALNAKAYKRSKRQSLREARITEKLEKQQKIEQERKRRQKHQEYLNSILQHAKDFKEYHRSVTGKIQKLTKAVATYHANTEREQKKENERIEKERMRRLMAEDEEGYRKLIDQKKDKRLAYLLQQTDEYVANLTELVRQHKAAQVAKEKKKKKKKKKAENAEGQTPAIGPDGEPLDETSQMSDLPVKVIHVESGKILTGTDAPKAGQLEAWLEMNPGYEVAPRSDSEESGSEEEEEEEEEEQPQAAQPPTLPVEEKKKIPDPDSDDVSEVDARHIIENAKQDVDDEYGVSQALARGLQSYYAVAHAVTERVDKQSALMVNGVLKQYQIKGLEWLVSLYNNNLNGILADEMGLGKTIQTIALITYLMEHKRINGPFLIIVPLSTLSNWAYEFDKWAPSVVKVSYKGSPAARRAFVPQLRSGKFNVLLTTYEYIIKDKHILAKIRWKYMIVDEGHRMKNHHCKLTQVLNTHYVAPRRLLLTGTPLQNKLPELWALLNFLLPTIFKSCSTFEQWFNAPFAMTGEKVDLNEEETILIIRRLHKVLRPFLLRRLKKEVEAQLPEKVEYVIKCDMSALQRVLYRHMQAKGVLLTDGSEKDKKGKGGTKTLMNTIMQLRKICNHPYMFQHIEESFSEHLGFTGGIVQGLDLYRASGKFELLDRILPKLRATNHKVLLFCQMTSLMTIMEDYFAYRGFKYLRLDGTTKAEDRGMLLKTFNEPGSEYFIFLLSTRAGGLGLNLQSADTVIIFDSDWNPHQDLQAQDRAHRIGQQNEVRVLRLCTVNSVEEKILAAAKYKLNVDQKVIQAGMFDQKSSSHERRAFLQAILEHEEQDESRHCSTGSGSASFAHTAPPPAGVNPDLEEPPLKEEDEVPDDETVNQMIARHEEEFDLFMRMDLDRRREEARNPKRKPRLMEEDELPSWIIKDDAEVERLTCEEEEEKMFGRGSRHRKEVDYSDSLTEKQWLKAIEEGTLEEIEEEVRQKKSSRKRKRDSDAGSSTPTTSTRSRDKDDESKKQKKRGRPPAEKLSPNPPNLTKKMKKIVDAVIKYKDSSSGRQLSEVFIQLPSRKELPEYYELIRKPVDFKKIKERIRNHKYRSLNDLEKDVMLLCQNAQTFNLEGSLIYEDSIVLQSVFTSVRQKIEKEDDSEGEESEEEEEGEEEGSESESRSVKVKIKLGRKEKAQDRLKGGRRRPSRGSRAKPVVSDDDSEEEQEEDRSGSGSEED
T1 sequence (P51531 whole entry, the tested form may be a part): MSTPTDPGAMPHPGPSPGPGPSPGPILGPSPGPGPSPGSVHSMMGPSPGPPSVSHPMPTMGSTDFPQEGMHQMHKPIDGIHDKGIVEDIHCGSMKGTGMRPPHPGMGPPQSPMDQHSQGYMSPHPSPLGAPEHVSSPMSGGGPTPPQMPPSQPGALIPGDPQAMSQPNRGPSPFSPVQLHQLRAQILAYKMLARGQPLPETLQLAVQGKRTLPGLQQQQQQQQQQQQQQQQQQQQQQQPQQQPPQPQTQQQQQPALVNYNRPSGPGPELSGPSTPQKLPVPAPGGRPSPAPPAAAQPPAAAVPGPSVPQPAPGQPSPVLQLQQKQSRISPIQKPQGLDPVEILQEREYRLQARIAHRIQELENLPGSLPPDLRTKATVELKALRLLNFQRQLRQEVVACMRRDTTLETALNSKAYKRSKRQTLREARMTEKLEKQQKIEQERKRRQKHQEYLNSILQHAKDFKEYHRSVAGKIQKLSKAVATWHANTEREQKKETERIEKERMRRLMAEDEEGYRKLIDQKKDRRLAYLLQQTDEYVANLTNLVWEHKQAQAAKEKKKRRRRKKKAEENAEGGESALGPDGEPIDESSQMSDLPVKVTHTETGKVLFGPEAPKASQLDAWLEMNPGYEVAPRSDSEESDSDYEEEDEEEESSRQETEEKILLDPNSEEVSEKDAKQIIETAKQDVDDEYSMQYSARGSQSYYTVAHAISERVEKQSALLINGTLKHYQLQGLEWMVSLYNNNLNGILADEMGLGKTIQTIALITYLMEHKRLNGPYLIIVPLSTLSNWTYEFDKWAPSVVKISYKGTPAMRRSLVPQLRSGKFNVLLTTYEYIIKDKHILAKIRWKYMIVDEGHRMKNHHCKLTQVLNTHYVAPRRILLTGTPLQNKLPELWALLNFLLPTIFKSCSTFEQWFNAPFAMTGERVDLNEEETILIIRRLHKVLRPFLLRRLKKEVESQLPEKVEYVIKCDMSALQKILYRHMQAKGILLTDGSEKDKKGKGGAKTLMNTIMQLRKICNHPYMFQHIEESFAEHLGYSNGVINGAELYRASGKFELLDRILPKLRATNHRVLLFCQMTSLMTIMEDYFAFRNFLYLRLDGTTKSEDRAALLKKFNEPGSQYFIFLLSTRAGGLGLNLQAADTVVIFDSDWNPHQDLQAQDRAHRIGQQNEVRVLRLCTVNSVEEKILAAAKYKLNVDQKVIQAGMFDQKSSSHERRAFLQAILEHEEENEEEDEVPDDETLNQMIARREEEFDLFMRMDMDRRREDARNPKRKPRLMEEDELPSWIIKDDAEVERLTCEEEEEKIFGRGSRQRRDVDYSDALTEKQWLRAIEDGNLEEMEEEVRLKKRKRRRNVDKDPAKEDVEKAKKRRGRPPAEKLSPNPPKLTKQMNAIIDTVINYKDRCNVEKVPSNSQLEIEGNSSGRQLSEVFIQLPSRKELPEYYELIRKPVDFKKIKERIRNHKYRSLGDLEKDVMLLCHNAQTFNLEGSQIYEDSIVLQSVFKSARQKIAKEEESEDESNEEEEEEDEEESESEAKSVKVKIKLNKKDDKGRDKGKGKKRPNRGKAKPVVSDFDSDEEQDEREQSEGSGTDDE

| SMILES | DC50 [1] | BRM HiBit Degradation Maximum measured [1] | DC50 [2] | Dmax [2] |
| --- | --- | --- | --- | --- |
| CS(=O)(=O)n1ccc(C(=O)N[C@@H](CCOCCCC(=O)NCCS(=O)(=O)CCNc2cccc3c2C(=O)N(C2CCC(=O)NC2=O)C3=O)C(=O)Nc2nc(-c3ccccc3)cs2)c1 (stereo partly drawn) [Compound 253, (2S)-4-(3-[[2-(2-[[2-(2,6-dioxopiperidin-3-yl)-1,3-dioxoisoindol-4-yl]amino]ethanesulfonyl)ethyl]carbamoyl]propoxy)-2-[(1-methanesulfonylpyrrol-3-yl)formamido]-N-(4-phenyl-1,3-thiazol-2-yl)butanamide] | > 10 µM | C (‘C’ = Maximum degradation <50%) | > 10 µM | < 50% |
| CS(=O)(=O)n1ccc(C(=O)N[C@@H](COCc2ccc(C(=O)N3CC(CN4CCN(c5ccc6c(c5)C(=O)N(C5CCC(=O)NC5=O)C6=O)CC4)C3)cc2)C(=O)Nc2nc(-c3ccccc3)cs2)c1 (stereo partly drawn) [Compound 193, (2S)-3-([4-[3-([4-[2-(2,6-dioxopiperidin-3-yl)-1,3-dioxoisoindol-5-yl]piperazin-1-yl]methyl)azetidine-1-carbonyl]phenyl]methoxy)-2-[(1-methanesulfonylpyrrol-3-yl)formamido]-N-(4-phenyl-1,3-thiazol-2-yl)propanamide; formic acid] | 0.1 to 1 µM | B (‘B’ = Maximum degradation ≥50% and ≤75%) | 0.1 to 1 µM | > 75% |
| CS(=O)(=O)n1ccc(C(=O)NCC(=O)Nc2nc(-c3cccc(-c4cccc(CNC(=O)CCCCCCCCNc5ccc6c(c5)C(=O)N(C5CCC(=O)NC5=O)C6=O)c4)c3)cs2)c1 (centres unmarked) [Compound 54, N-[2-[[4-[3-[3-[[9-[[2-(2,6-dioxo-3-piperidyl)-1,3-dioxo-isoindolin-5-yl]amino]nonanoylamino]methyl]-phenyl]phenyl]thiazol-2-yl]amino]-2-oxo-ethyl]-1-methylsulfonyl-pyrrole-3-carboxamide] | > 10 µM | C (‘C’ = Maximum degradation <50%) | > 10 µM | < 50% |
| CS(=O)(=O)n1ccc(C(=O)N[C@@H](CCCCNC(=O)CCCCCCCOc2cccc3c2C(=O)N(C2CCC(=O)NC2=O)C3=O)C(=O)Nc2nc(-c3ccccc3)cs2)c1 (stereo partly drawn) [Compound 289, 8-[[2-(2,6-dioxopiperidin-3-yl)-1,3-dioxoisoindol-4-yl]oxy]-N-[(5S)-5-[(1-methanesulfonylpyrrol-3-yl)formamido]-5-[(4-phenyl-1,3-thiazol-2-yl)carbamoyl]pentyl]octanamide] | > 10 µM | C (‘C’ = Maximum degradation <50%) | > 10 µM | < 50% |
| CN(CCNc1ccc2c(c1)C(=O)N(C1CCC(=O)NC1=O)C2=O)C(=O)C1(c2cc(-c3cccc(-c4csc(NC(=O)CNC(=O)c5ccn(S(C)(=O)=O)c5)n4)c3)ccn2)CC1 (centres unmarked) [Compound 162, N-(2-[[2-(2,6-dioxopiperidin-3-yl)-1,3-dioxoisoindol-5-yl]amino]ethyl)-1-[4-[3-(2-[2-[(1-methanesulfonylpyrrol-3-yl)formamido]acetamido]-1,3-thiazol-4-yl)phenyl]pyridin-2-yl]-N-methylcyclopropane-1-carboxamide] | > 10 µM | C (‘C’ = Maximum degradation <50%) | > 10 µM | < 50% |
| CS(=O)(=O)n1ccc(C(=O)N[C@@H](COCc2ccc(C(=O)N3CCN(CC4CN(c5ccc6c(c5)C(=O)N(C5CCC(=O)NC5=O)C6=O)C4)CC3)cc2)C(=O)Nc2nc(-c3ccccc3)cs2)c1.O=CO (stereo partly drawn) [Compound 231, (2S)-3-([4-[4-([1-[2-(2,6-dioxopiperidin-3-yl)-1,3-dioxoisoindol-5-yl]azetidin-3-yl]methyl)piperazine-1-carbonyl]phenyl]methoxy)-2-[(1-methanesulfonylpyrrol-3-yl)formamido]-N-(4-phenyl-1,3-thiazol-2-yl)propanamide; formic acid] | > 10 µM | C (‘C’ = Maximum degradation <50%) | > 10 µM | < 50% |
| Cc1ncsc1-c1ccc(CNC(=O)[C@@H]2C[C@@H](O)CN2C(=O)[C@@H](NC(=O)CCC(=O)NCc2cccc(-c3cccc(-c4csc(NC(=O)CNC(=O)c5ccn(S(C)(=O)=O)c5)n4)c3)c2)C(C)(C)C)cc1 [Compound 63, N1-((S)-1-((2S,4R)-4-hydroxy-2-((4-(4-methylthiazol-5-yl)benzyl)carbamoyl)pyrrolidin-1-yl)-3,3-dimethyl-1-oxobutan-2-yl)-N4-((3′-(2-(2-(1-(methylsulfonyl)-1H-pyrrole-3-carboxamido)acetamido)thiazol-4-yl)-[1,1′-biphenyl]-3-yl)methyl)succinamide] | > 10 µM | C (‘C’ = Maximum degradation <50%) | > 10 µM | < 50% |
| CS(=O)(=O)n1ccc(C(=O)N[C@@H](COCc2ccc(C(=O)N3CCN(CCCCCOc4ccc5c(c4)C(=O)N(C4CCC(=O)NC4=O)C5=O)CC3)cc2)C(=O)Nc2nc(-c3ccccc3)cs2)c1 (stereo partly drawn) [Compound 233, (2S)-3-([4-[4-(5-[[2-(2,6-dioxopiperidin-3-yl)-1,3-dioxoisoindol-5-yl]oxy]pentyl)piperazine-1-carbonyl]phenyl]methoxy)-2-[(1-methanesulfonylpyrrol-3-yl)formamido]-N-(4-phenyl-1,3-thiazol-2-yl)propanamide] | > 10 µM | C (‘C’ = Maximum degradation <50%) | 0.1 to 1 µM | 50 to 75% |
| Cc1ncsc1-c1ccc(CNC(=O)[C@@H]2C[C@@H](O)CN2C(=O)[C@@H](NC(=O)COCC(=O)N2CCN(c3cc(-c4cccc(-c5csc(NC(=O)CNC(=O)c6ccn(S(C)(=O)=O)c6)n5)c4)ccn3)CC2)C(C)(C)C)cc1 [Compound 72, N-[2-[[4-[3-[2-[4-[2-[2-[[(1S)-1-[(2S,4R)-4-hydroxy-2-[[4-(4-methylthiazol-5-yl)phenyl]methylcarbamoyl]pyrrolidine-1-carbonyl]-2,2-dimethyl-propyl]amino]-2-oxo-ethoxy]acetyl]piperazin-1-yl]-4-pyridyl]phenyl]thiazol-2-yl]amino]-2-oxo-ethyl]-1-methylsulfonyl-pyrrole-3-carboxamide] | > 10 µM | C (‘C’ = Maximum degradation <50%) | > 10 µM | < 50% |
| CS(=O)(=O)n1ccc(C(=O)N[C@@H](COCc2ccc(C(=O)N3CCN(CCCOc4ccc5c(c4)C(=O)N(C4CCC(=O)NC4=O)C5=O)CC3)cc2)C(=O)Nc2nc(-c3ccccc3)cs2)c1 (stereo partly drawn) [Compound 235, (2S)-3-([4-[4-(3-[[2-(2,6-dioxopiperidin-3-yl)-1,3-dioxoisoindol-5-yl]oxy]propyl)piperazine-1-carbonyl]phenyl]methoxy)-2-[(1-methanesulfonylpyrrol-3-yl)formamido]-N-(4-phenyl-1,3-thiazol-2-yl)propanamide] | > 10 µM | C (‘C’ = Maximum degradation <50%) | > 10 µM | < 50% |
| CN(CC(=O)NCCOCCOCCNc1ccc2c(c1)C(=O)N(C1CCC(=O)NC1=O)C2=O)c1cc(-c2cccc(-c3csc(NC(=O)CNC(=O)c4ccn(S(C)(=O)=O)c4)n3)c2)ccn1 (centres unmarked) [Compound 93] | > 10 µM | C (‘C’ = Maximum degradation <50%) | > 10 µM | < 50% |
